US11919854B2, “P2RX7 modulators in therapy” (Centre national de la recherche scientifique, priority 2018, dated 2024)

How the values were obtained:
[1] = Plasmatic concentration after intraperitoneal administration (LC-MS/MS); format: in vivo, mice; conditions: ip
Experimental: B. HEI 3090 is found within plasma until 18 h after intraperitoneal administration. Intraperitoneal administration of HEI-3090 (0.166 mg/mL in 10% DMSO) was performed and serum was taken at 0, 10, 20, 30, […], 120, 240, 360, 1080 and 1440 min. Plasmatic concentration was determined by LC-MS/MS and reached a maximum of 2.5 μM.
Stability was studied in the mouse liver microsome system—and human, not shown—(FIG. 13A) and directly in vivo, for HEI3090 molecule (FIG. 13B). These experiments highlighted that HEI3090 is found at a concentration of maximum 2.5 μM in the plasma of mice injected with HEI3090 (ip, 1.5 mg/kg in 10% DMSO).

[2] = system: LLC (Lewis Lung Cancer) cells; test: Syngeneic tumor mice model, LLC subcutaneous; format: in vivo, C57BL6 mice
Experimental: (§1) 5×10^5 LLC or 5×10^5 B16F10 cells were injected sub cutaneously in the right flank of C57BL6 mice. Mice received HEI3090 (ip, 2.5 mg/kg in 10% DMSO/PBS) daily or placebo (10% DMSO/PBS). A,C. incidence of tumor appearance B,D. Tumor size (mm2) and tumor weight at sacrifice day (J12). E. HEI-treated tumors are more immunogenic. Expression of CMH1 (H2K^b/D^b) and PD-L1 by LLC (black) and B16F10 (grey) tumors is shown in dot plots. Numbers highlighted the percentage of tumor cells positive for H2K^b/D^b and PD-L1. […] F. CD-45 positive infiltrates is increased in LLC and B16F10 tumors. *, p<0.05; **, p<0.01; ***, p<0.001 Mann-Whitney test.
(§2) 5×10^5 LLC or 5×10^5 B16F10 cells were injected sub cutaneously in the right flank of C57BL6 mice. Mice received HEI3090 (ip, 2.5 mg/kg in 10% DMSO/PBS) daily or placebo (10% DMSO/PBS). A. The quantity of immunosuppressive cells is reduced. Dot plot of representative experiment. Numbers highlighted the percentage of M-MDSC and PMN-MDSC. […] B. The quantity of effector T cells ([…], NK, CD4+) is increased.
5×10^5 LLC cells were injected sub cutaneously in the right flank of C57BL6 mice. Mice received HEI3090 (ip, 2.5 mg/kg in 10% DMSO/PBS) alone or in presence of anti CD4 antibody daily or placebo (10% DMSO/PBS). A. Tumor growth from the 3 groups was followed daily. B. tumor weight at sacrifice day (J12). *, p<0.05; ****, p<0.0001 (Mann-Whitney test).
a, b. Phenotypic flow cytometry analyses of tumor infiltrating cells. LLC tumors were collected at day 12. Proportion of PMN-MDSC among CD45+ within LLC tumors from mice treated with vehicle or HEI3090 (a). Ratio of NK, CD4+ or CD8+ T cells on PMN-MDSC (b).
c, d. 5.105 LLC were injected s.c. into the flank of C57BL6/J mice. Then mice were treated i.p. with vehicle (PBS, 10% DMSO) or with HEI3090 (1.5 mg/kg in PBS, 10% DMSO) or with HEI3090 and depleting antibody against NK1.1, CD4+ or CD8+ T cells. Antibodies were administered i.p every 3 days (200 μg/injection). Spaghetti plots and tumor weight at day 12 (d). Each curve represents one mouse.
e-g Functional flow cytometry analyses of tumor infiltrating immune cells or splenocytes. Tumors were stimulated with PMA/ionomycine and production of IFN-γ and IL-10 were simultaneously analyzed in CD45+, NK, CD4+ or CD8+ T cells. Graphs shown proportion of IFN-γ producing cells into CD45+ cells or geometric mean of fluorescence (e). Representative dot plots of IFN-γ and IL-10 staining into TILs (f). Ratios of IFN-γ on IL-10 positive cells on each TIL. Degranulation assay of splenocytes from LLC tumor bearing mice treated with vehicle or HEI3090 (g) Splenocytes were re-stimulated with LLC in vitro and CD107a positive cells in NK, CD4+ and CD8+ T cells were represented.
a. Flow cytometry analyses of P2RX7 expression among conventional dendritic cells CD4+ or CD8+ within LLC tumors.
b. Protein levels of IL-1p and IL-18 in serum of LLC tumor bearing mice treated with vehicle or HEI3090, determined by ELISA.
c. 5.105 LLC were injected s.c. into the flank of C57BL6/J mice. Then mice were treated i.p. with vehicle (PBS, 10% DMSO) or with HEI3090 (1.5 mg/kg in PBS, 10% DMSO) or with HEI3090 and neutralizing antibody against IL-1p or IL-18 from day 1 to day 12. Antibodies were administered i.p every 3 days (200 μg/injection).
e. Effect of HEI3090 on tumor growth in IL-18 deficient mice (IL-18^−/−). 5.105 LLC were injected s.c. into the flank of IL-18^−/− mice. Mice were treated i.p. with vehicle (PBS, 10% DMSO) or with HEI3090 (1.5 mg/kg in PBS, 10% DMSO) from day 1 to day 12.
4.2. By killing tumoral cells, HEI3090 may represent a new anti-tumor treatment. To test this hypothesis, immunocompetent C57B16J mice were subcutaneously injected with 5×10^5 B16F10 or 5×10^5 LLC (Lewis Lung Cancer) cells and treated daily with HEI3090 (ip, 2.5 mg/kg in 10% DMSO/PBS) or placebo (10% DMSO/PBS). […]

[3] = system: B16F10 or LLC (Lewis Lung Cancer) cells; test: Syngeneic tumor mice models, statements covering both B16F10 and LLC; format: in vivo, C57BL6 mice
Experimental: as §1, §2
4.2. By killing tumoral cells, HEI3090 may represent a new anti-tumor treatment. To test this hypothesis, immunocompetent C57B16J mice were subcutaneously injected with 5×10^5 B16F10 or 5×10^5 LLC (Lewis Lung Cancer) cells and treated daily with HEI3090 (ip, 2.5 mg/kg in 10% DMSO/PBS) or placebo (10% DMSO/PBS). […] In both tumor mice models, tumors weight in the treated group was reduced by 10-fold in the B16F10 model (8 mg vs 81 mg) and by 4-folds in the LLC model (80 mg vs 295 mg). Of interest, tumors from the HEI3090 treated group are more immunogenic than tumors from the placebo group.

Structure (SMILES): O=C(NCc1ccc(Cl)cc1Cl)[C@@H]1CCC(=O)N1C(=O)Nc1ccc(Cl)nc1 [HEI3090, (S)—N^1-(6-Chloropyridin-3-yl)-N^2-(2,4-dichlorobenzyl)-5-oxopyrrolidine-1,2-dicarboxamide]
- time found within plasma after intraperitoneal administration ([1]; 0.166 mg/mL in 10% DMSO): ≤ 18 h
- maximum plasmatic concentration ([1]; mice, 1.5 mg/kg in 10% DMSO (0.166 mg/mL in 10% DMSO)): 2.5 µM
- IL18 in plasma and within the tumor ([2]; ELISA in serum, IHC in tumors): overexpressed
- immune cells required for anti-tumor effect ([2]; HEI3090 1.5 mg/kg ip with depleting antibody against NK1.1, CD4+ or CD8+ T cells): both NK and CD4+ cells are required
- IFN-γ expression of NK and CD4+ cells in tumor ([2]; HEI3090 1.5 mg/kg ip, flow cytometry): expressed more IFN-γ
- immunosuppressive cells (PMN-MDSC) in tumor infiltrates ([2]; HEI3090 ip 2.5 mg/kg daily): less PMN-MDSC
- tumors weight ([2]; HEI3090 ip 2.5 mg/kg daily (placebo 295 mg)): 80 mg
- reduction of tumors weight ([2]; HEI3090 ip 2.5 mg/kg daily, vs placebo): 4 folds
- tumor size with depletion of T CD4+ lymphocytes ([2]; HEI3090 plus anti-T CD4+ antibody): bigger than tumors from the HEI3090 group, and smaller than tumors from the placebo group
- tumor growth without IL18 ([2]; blocking IL18 antibody and Il18−/− mice, HEI3090 1.5 mg/kg ip): did not block tumor growth anymore
- P2RX7 expression on dendritic cells within tumors ([2]; flow cytometry): increased P2RX7 expression on dendritic cells
- CD45 positive cells in tumors ([3]; HEI3090 ip 2.5 mg/kg daily): enriched with CD45 positive cells
- delay of tumor appearance ([3]; HEI3090 ip 2.5 mg/kg daily): 1 to 4 days
- ratio between effector cells (Tγδ, NK, CD4+) and total MDSC ([3]; HEI3090 ip 2.5 mg/kg daily): in favor to effector cells
- tumor expression of PD-L1 vs placebo ([3]; HEI3090 ip 2.5 mg/kg daily): 2 fold
- tumor expression of major complex histocompatibility 1 (MCH1) vs placebo ([3]; HEI3090 ip 2.5 mg/kg daily): 2 fold
- tumor growth ([3]; HEI3090 ip 2.5 mg/kg daily): potently inhibits tumor growth
- tumor volume and tumor weight ([3]; HEI3090 ip 2.5 mg/kg daily, sacrifice day J12): drastically reduced
- overall mice survival ([3]; therapeutically treated mice (increase from 22)): 50 days
- immune cells within the spleen of treated mice ([3]; tumor bearing mice treated with HEI3090): unable to detect any modification of immune cells within the spleen
